The numbers were not newly measured in US20050113418A1, “Administration of pharmaceuticals” (priority 1996, published 2005), which cites them from elsewhere.

The conditions of the data set: Lind et al, Gut 1983.

In the case of `COc1ccc2[nH]c([S+]([O-])Cc3ncc(C)c(OC)c3C)nc2c1` (stereo not shown) [Omeprazole, omeprazole], the plasma half-life was 30 to 60 min.
